Data set [1] is described as follows: Water solubility of cyclodextrin complexes with or without polysorbate 80 / polypowder. The data set is classed as physicochemical. To be noted: aqueous with cosolvent or surfactant or cyclodextrin, complexed with hpbcd, read-out: solubility when complexed with hpbcd.
The conditions of data set [2]: room temperature, various compositions; cited from earlier work.

Broadly, the solubility is the dissolved amount per volume that the medium holds. Take `O=C(NN1C(=O)[C@@H]2[C@@H]3C=C[C@@H]([C@H]4C[C@@H]34)[C@@H]2C1=O)c1ccc(C(F)(F)F)cc1` [tecovirimat]: the solubility in data set [1] is over 10000 µg/mL. For `Cc1cc(C2=NOC(c3cc(Cl)cc(Cl)c3)(C(F)(F)F)C2)ccc1C(=O)NCC(=O)NCC(F)(F)F` (centres unmarked) [Fluralaner, 4-[5-(3,5-dichlorophenyl)-5-trifluoromethyl-4,5-dihydroisoxazol-3-yl]-2-methyl-N-[(2,2,2-trifluoro-ethylcarbamoyl)-methyl]-benzamide], in data set [2], the degradation by water was at most 48 h.

These data come from patent US11903962B1, “Isoxazoline complexes and compositions thereof” (priority 2023, dated 2024).
